According to patent US20250171457A1, “NITROGEN-CONTAINING HETEROCYCLIC COMPOUND HAVING NRF2 ACTIVATION EFFECT” (CHUGAI SEIYAKU KABUSHIKI KAISHA, priority 2022, published 2025):

What follows are compounds tested on Nrf2 transcriptional activity (pARE-Luc reporter) in HepG2 cells (assay: In vitro Nrf2 transcriptional activity measurement by ARE-dependent reporter assay in HepG2 cell). Settings: Homo sapiens; HepG2 cells transfected with pARE-Luc, 4 hours at 37° C.; luciferase activity of Example 1-54 or Example 17-23 at 3.75 μM defined as 100%.
Format: cell-based, human
In short: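 HepG2 cells transfected with pGL4.37 (pARE-Luc), replated onto compound and incubated 4 h at 37° C; luciferase read by Bright-Glo luminescence. Response normalized to 100% set by a reference compound at 3.75 μM; EC50 from dose-response curve.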
`O=C(O)c1ccc(-c2cccc3c2OCN(C(=O)c2c(Cl)cc(N4CC5(CCCO5)C4)cc2Cl)C3)cc1N1C2CCC1COC2` [Compound 1-61, 4-[3-[2,6-Dichloro-4-(5-oxa-2-azaspiro[3.4]octan-2-yl)benzoyl]-2,4-dihydro-1,3-benzoxazin-8-yl]-2-(3-oxa-8-azabicyclo[3.2.1]octan-8-yl)benzoic acid] gave an EC50 of 2.6 nM.
In the case of `C[C@@H]1CN(C)CCN1c1cc(Cl)c(C(=O)N2COc3c(cccc3-c3cc(N4C5CCC4COC5)c(-c4nnn[nH]4)cc3F)C2)c(Cl)c1` [Compound 16-4, [2,6-Dichloro-4-[(2R)-2,4-dimethylpiperazin-1-yl]phenyl]-[8-[2-fluoro-5-(3-oxa-8-azabicyclo[3.2.1]octan-8-yl)-4-(1H-tetrazol-5-yl)phenyl]-2,4-dihydro-1,3-benzoxazin-3-yl]methanone], the EC50 is reported as 110 nM.
Work on `Cc1cc(-c2cccc3c2OCN(C(=O)c2c(Cl)cc(N4CCOCC4)cc2Cl)C3)cc(N2CCOCC2)c1C(=O)O` [Compound 4-32, 4-[3-(2,6-Dichloro-4-morpholin-4-ylbenzoyl)-2,4-dihydro-1,3-benzoxazin-8-yl]-2-methyl-6-morpholin-4-ylbenzoic acid] yielded an EC50 of 6.9 nM.
`CCc1cc(C(=O)N2COc3c(cccc3-c3cc(N4CCOCC4)c(C(=O)O)cc3F)C2)c(Cl)cc1OC` [Compound 18-4, 4-[3-(2-Chloro-5-ethyl-4-methoxybenzoyl)-2,4-dihydro-1,3-benzoxazin-8-yl]-5-fluoro-2-morpholin-4-ylbenzoic acid] was tested, and the EC50 was 3.7 nM.
`CCOC1CN(c2cc(Cl)c(C(=O)N3COc4c(cccc4-c4cc(N5C6CCC5COC6)c(C(=O)O)cc4F)C3)c(Cl)c2)C1` [Compound 6-5, 4-[3-[2,6-Dichloro-4-(3-ethoxyazetidin-1-yl)benzoyl]-2,4-dihydro-1,3-benzoxazin-8-yl]-5-fluoro-2-(3-oxa-8-azabicyclo[3.2.1]octan-8-yl)benzoic acid] showed an EC50 of 10 nM.
For `O=C(O)c1cc(F)c(-c2c(F)ccc3c2OCN(C(=O)c2c(Cl)cc(N4CCN(C5COC5)CC4)cc2Cl)C3)cc1N1CCOCC1` [Compound 1-82, 4-[3-[2,6-Dichloro-4-[4-(oxetan-3-yl)piperazin-1-yl]benzoyl]-7-fluoro-2,4-dihydro-1,3-benzoxazin-8-yl]-5-fluoro-2-morpholin-4-ylbenzoic acid], the EC50 was 3.5 nM.
`COC1CN(C2CC3(C2)CN(c2cc(Cl)c(C(=O)N4COc5c(cccc5-c5cc(N6C7CCC6COC7)c(C(=O)O)cc5F)C4)c(Cl)c2)C3)C1` [Compound 11-1, 4-[3-[2,6-Dichloro-4-[6-(3-methoxyazetidin-1-yl)-2-azaspiro [3.3]heptan-2-yl]benzoyl]-2,4-dihydro-1,3-benzoxazin-8-yl]-5-fluoro-2-(3-oxa-8-azabicyclo [3.2.1]octan-8-yl)benzoic acid] showed an EC50 of 3.6 nM.
`COCC(COC)N1C2CCC1CN(c1cc(Cl)c(C(=O)N3COc4c(cccc4-c4cc(N5C6CCC5COC6)c(C(=O)O)cc4F)C3)c(Cl)c1)C2` [Compound 7-18, 4-[3-[2,6-Dichloro-4-[8-(1,3-dimethoxypropan-2-yl)-3,8-diazabicyclo[3.2.1]octan-3-yl]benzoyl]-2,4-dihydro-1,3-benzoxazin-8-yl]-5-fluoro-2-(3-oxa-8-azabicyclo[3.2.1]octan-8-yl)benzoic acid] gave an EC50 of 1.7 nM.
Compound `O=C(O)c1cc(F)c(-c2cccc3c2OCN(C(=O)c2c(Cl)cc(N4CC5CCC(C4)N5C4CC4)cc2Cl)C3)cc1N1C2CCC1COC2` [Compound 9-20, 4-[3-[2,6-Dichloro-4-(8-cyclopropyl-3,8-diazabicyclo[3.2.1]octan-3-yl)benzoyl]-2,4-dihydro-1,3-benzoxazin-8-yl]-5-fluoro-2-(3-oxa-8-azabicyclo[3.2.1]octan-8-yl)benzoic acid] has an EC50 of 4.6 nM.
For `O=C(O)c1ccc(-c2cccc3c2OCN(C(=O)c2c(Cl)cc(N4CCN(C5COC5)CC4)cc2Cl)C3)cc1N1CCOCC1` [Compound 1-66, 4-[3-[2,6-Dichloro-4-[4-(oxetan-3-yl)piperazin-1-yl]benzoyl]-2,4-dihydro-1,3-benzoxazin-8-yl]-2-morpholin-4-ylbenzoic acid], the EC50 was 2.7 nM.
`Cn1ncc2cc(Cl)c(C(=O)N3COc4c(cccc4-c4cc(N5CCOCC5)c(C(=O)O)cc4F)C3)cc21` [Compound 13-15, 4-[3-(5-Chloro-1-methylindazole-6-carbonyl)-2,4-dihydro-1,3-benzoxazin-8-yl]-5-fluoro-2-morpholin-4-ylbenzoic acid] showed an EC50 of 10 nM.
With `O=C(O)c1ccc(-c2cccc3c2C(=O)NN(C(=O)c2c(Cl)cc(N4CCN(C5CC5)CC4)cc2Cl)C3)cc1N1CCOCC1` [Compound 1-75, 4-[2-[2,6-Dichloro-4-(4-cyclopropylpiperazin-1-yl)benzoyl]-4-oxo-1,3-dihydrophthalazin-5-yl]-2-morpholin-4-ylbenzoic acid] the EC50 was 8 nM.
Work on `COCCN1CCN(c2cc(Cl)c(C(=O)N3COc4c(ccc(F)c4-c4ccc(C(=O)O)c(N5CCOCC5)c4)C3)c(Cl)c2)CC1` [Compound 1-79, 4-[3-[2,6-Dichloro-4-[4-(2-methoxyethyl)piperazin-1-yl]benzoyl]-7-fluoro-2,4-dihydro-1,3-benzoxazin-8-yl]-2-morpholin-4-ylbenzoic acid] yielded an EC50 of 3.6 nM.
`COCC(F)(F)CN1CC2(C1)CN(c1cc(Cl)c(C(=O)N3COc4c(cccc4-c4cc(N5C6CCC5COC6)c(C(=O)O)cc4F)C3)c(Cl)c1)C2` [Compound 16-17, 4-[3-[2,6-Dichloro-4-[6-(2,2-difluoro-3-methoxypropyl)-2,6-diazaspiro[3.3]heptan-2-yl]benzoyl]-2,4-dihydro-1,3-benzoxazin-8-yl]-5-fluoro-2-(3-oxa-8-azabicyclo[3.2.1]octan-8-yl)benzoic acid] was tested, and the EC50 was 2.7 nM.
`CN1CCN(c2cc(Cl)c(C(=O)N3COc4c(-c5cc(N6CCOCC6)c(C(=O)O)cc5F)ccc(F)c4C3)c(Cl)c2)CC1` [Compound 1-78, 4-[3-[2,6-Dichloro-4-(4-methylpiperazin-1-yl)benzoyl]-5-fluoro-2,4-dihydro-1,3-benzoxazin-8-yl]-5-fluoro-2-morpholin-4-ylbenzoic acid] showed an EC50 of 15 nM.
For `O=C(O)c1cc(F)c(-c2cccc3c2OCN(C(=O)c2c(Cl)cc(N4CCN(C5COC5)CC4)cc2Cl)C3)cc1N1CCOCC1` [Compound 1-55, 4-[3-[2,6-Dichloro-4-[4-(oxetan-3-yl)piperazin-1-yl]benzoyl]-2,4-dihydro-1,3-benzoxazin-8-yl]-5-fluoro-2-morpholin-4-ylbenzoic acid], the EC50 was 1.5 nM.
Work on `CCOc1cc(Cl)c(C(=O)N2COc3c(cccc3-c3cc(N4CCOCC4)c(C(=O)O)cc3F)C2)cc1OC` [Compound 4-54, 4-[3-(2-Chloro-4-ethoxy-5-methoxybenzoyl)-2,4-dihydro-1,3-benzoxazin-8-yl]-5-fluoro-2-morpholin-4-ylbenzoic acid] yielded an EC50 of 1.2 nM.
Compound `Cc1cc(N2CC3(C2)OCC(C)(C)CO3)cc(C)c1C(=O)N1COc2c(cccc2-c2cc(N3C4CCC3COC4)c(C(=O)O)cc2F)C1` [Compound 19-2, 4-[3-[4-(7,7-Dimethyl-5,9-dioxa-2-azaspiro[3.5]nonan-2-yl)-2,6-dimethylbenzoyl]-2,4-dihydro-1,3-benzoxazin-8-yl]-5-fluoro-2-(3-oxa-8-azabicyclo[3.2.1]octan-8-yl)benzoic acid] has an EC50 of 1.6 nM.
`Cn1nnc2c(-c3cc(Cl)c(C(=O)N4COc5c(cccc5-c5cc(N6C7CCC6COC7)c(C(=O)O)cc5F)C4)c(Cl)c3)cccc21` [Compound 3-4, 4-[3-[2,6-Dichloro-4-(1-methylbenzotriazol-4-yl)benzoyl]-2,4-dihydro-1,3-benzoxazin-8-yl]-5-fluoro-2-(3-oxa-8-azabicyclo[3.2.1]octan-8-yl)benzoic acid] showed an EC50 of 6.2 nM.
For `CCOC1(C)CN(c2cc(Cl)c(C(=O)N3COc4c(cccc4-c4cc(N5C6CCC5COC6)c(C(=O)O)cc4F)C3)c(Cl)c2)C1` [Compound 4-2, 4-[3-[2,6-Dichloro-4-(3-ethoxy-3-methylazetidin-1-yl)benzoyl]-2,4-dihydro-1,3-benzoxazin-8-yl]-5-fluoro-2-(3-oxa-8-azabicyclo[3.2.1]octan-8-yl)benzoic acid], the EC50 was 1.2 nM.
`COCCN1C[C@@H]2CC[C@H]1CN2c1cc(Cl)c(C(=O)N2COc3c(cccc3-c3cc(N4C5CCC4COC5)c(C(=O)O)cc3F)C2)c(Cl)c1` [Compound 7-17, 4-[3-[2,6-Dichloro-4-[(1S,4S)-5-(2-methoxy-ethyl)-2,5-diazabicyclo[2.2.2]octan-2-yl]benzoyl]-2,4-dihydro-1,3-benzoxazin-8-yl]-5-fluoro-2-(3-oxa-8-azabicyclo[3.2.1]octan-8-yl)benzoic acid] showed an EC50 of 9 nM.
In the case of `COC1(OC)CC2(CN(c3cc(Cl)c(C(=O)N4COc5c(cccc5-c5cc(N6C7CCC6COC7)c(C(=O)O)cc5F)C4)c(Cl)c3)C2)C1` [Compound 5-11, 4-[3-[2,6-Dichloro-4-(6,6-dimethoxy-2-azaspiro[3.3]heptan-2-yl)benzoyl]-2,4-dihydro-1,3-benzoxazin-8-yl]-5-fluoro-2-(3-oxa-8-azabicyclo[3.2.1]octan-8-yl)benzoic acid], the EC50 is reported as 3.4 nM.
In the case of `COCCN1CCN(c2cc(Cl)c(C(=O)N3COc4c(cccc4-c4cc(N5C6CCC5COC6)c(C(=O)O)cc4F)C3)c(Cl)c2)[C@H](C)C1` [Compound 7-9, 4-[3-[2,6-Dichloro-4-[(2R)-4-(2-methoxyethyl)-2-methylpiperazin-1-yl]benzoyl]-2,4-dihydro-1,3-benzoxazin-8-yl]-5-fluoro-2-(3-oxa-8-azabicyclo[3.2.1]octan-8-yl)benzoic acid], the EC50 is reported as 8.4 nM.
For `COC1(C)CN(c2cc(Cl)c(C(=O)N3COc4c(cccc4-c4cc(N5C6CCC5COC6)c(C(=O)O)cc4F)C3)c(Cl)c2)C1` [Compound 4-5, 4-[3-[2,6-Dichloro-4-(3-methoxy-3-methylazetidin-1-yl)benzoyl]-2,4-dihydro-1,3-benzoxazin-8-yl]-5-fluoro-2-(3-oxa-8-azabicyclo[3.2.1]octan-8-yl)benzoic acid], the EC50 was 1.3 nM.
